Laboratory results as given in publication PMC11726677, “Eradication of Therapy-Resistant Cancer Stem Cells by Novel Telmisartan Derivatives” (Journal of Medicinal Chemistry, 2024).
Several values for one entry are separate records, joined by “and”; a condition that tells them apart may be missing. Identical values can stand only once. Marks after values point to notes of the source that are not given here.

Tests used:
IGROV-1 SP cells = assay: Chemosensitizing to paclitaxel: metabolic activity of IGROV-1 SP cells (MTT); format: cell-based, human; conditions: compound 10 μM + PTX 10 nM, 72 h
Protocol: The chemosensitizing efficacy was investigated in the ovarian and prostate cancer cell lines using the above-described metabolic activity assay. Paclitaxel (PTX) served as a reference (CTR) in A2780 V SP and IGROV-1 SP cells and docetaxel (DTX) in PC3-DR and D145-DR cells.
COS-7 (2 × 10^3 cells per well), IGROV-1 SP (2.5 × 10^3 cells per well), A2780 V SP (1.5 × 10^3 cells per well), PC3-DR (4 × 10^3 cells per well), and DU145-DR (3 × 10^3 cells per well) cells were seeded in 96-well plates in triplicates and after 24 h, the compounds were added at the respective concentrations. K562-R and K562 cells (2 × 10^4 cells per well), were treated with the compounds 2 h after seeding. […] A modified MTT colorimetric assay (EZ4U kit, Biomedica) was used to determine the metabolic activity of the tested cells, according to the manufacturer’s instructions. Absorbance was measured and the optical density of the respective FCS-containing medium and of the substrate was subtracted to exclude nonspecific staining. Metabolic activity in the absence of the compounds (CTR, DMSO) was set to 100% as reference.

[1] = Caco2 permeability (bidirectional); format: in vitro ADME; conditions: human, Caco-2; Papp B–A/Papp A–B
Protocol: The medium was changed regularly and on day 20 the permeability study was performed. The monolayers were prepared by rinsing the apical and basolateral surfaces with Hanks Balanced Salt Solution (HBSS) twice at the desired pH and by incubating for 40 min to stabilize the physiological parameters. […] The compounds were diluted with buffer to a concentration of 10 μM (final DMSO concentration ≤1%) and added to the apical or basolateral sides of the cell monolayer. Compound permeability was assessed in duplicates and molecules of known permeability characteristics were used as controls (antipyrine, atenolol, talinolol, and estrone 3-sulfate). To calculate Papp, compound appearance was measured using LC–MS/MS. The efflux ratio was determined for bidirectional assays.

[2] = system: human CML K562-R xenograft; assay: Efficacy in human CML K562-R xenograft model; format: in vivo, female NOD/SCID mice; set-up: % T/C (treatment/control) / % TGI (tumor growth inhibition): concentration or dose not given beside the values; conditions: for Tumor Volume, individual animal / Tumor Volume, group mean: PO QD x 30 days (imatinib 50 mg/kg, 7c 10 mg/kg); for % T/C (treatment/control): mean tumor volume treated vs control; for % TGI (tumor growth inhibition): vs vehicle control
Protocol: The animals were checked daily for humane end points. Body weight was measured and recorded daily after dosing.
The % T/C value, defined as the ratio of the mean tumor volume for the treated versus control group, was calculated as % T/C = (Tn/Cn) × 100%; whereas Tn: denotes mean tumor volume of the treated group on day n, and Cn: denotes mean tumor volume of the control group on day n. The optimal value is the minimal % T/C ratio, which reflects the maximal tumor growth inhibition achieved.
TGI (Tumor growth inhibition) was calculated by the following formula [drawing 1] [drawing 2]
Whereas: Tn: denotes the mean tumor volume of the treated group on day n; T1: denotes the mean tumor volume of the treated group on day 1; Cn: denotes the mean tumor volume of the vehicle control group on day n; and C1: denotes the mean tumor volume of the vehicle control group at day 1.

CCCc1nc2c(C)cc(-c3nc4ccccc4n3C)cc2n1Cc1ccc(-c2ccccc2C(=O)OC)cc1 [7b, Methyl 4′-((1,7′-dimethyl-2′-propyl-1H,3′H-[2,5′-bibenzo[d]imidazole]-3′-yl)methyl)-[1,1′-biphenyl]-2-carboxylate]
viability / antimetabolic effect in combination with PTX (IGROV-1 SP cells): inactive
efflux ratio at 10 µM [1]: 1.24

CCCc1nc2c(C)cc(-c3nc4ccccc4n3C)cc2n1Cc1ccc(-c2ccccc2C(N)=O)cc1 [7c, 4′-((1,7′-Dimethyl-2′-propyl-1H,3′H-[2,5′-bibenzo[d]imidazole]-3′-yl)methyl)-[1,1′-biphenyl]-2-carboxamide]
Tumor Volume, individual animal ([2]; Day 1, animals No. 1–7): 171 mm3 and 163 mm3 and 155 mm3 and 149 mm3 and 140 mm3 and 136 mm3 and 124 mm3
Tumor Volume, group mean ([2]; Day 1, n = 7): 148 mm3
Tumor Volume, individual animal ([2]; Day 5, animals No. 1–7): 197 mm3 and 204 mm3 and 162 mm3 and 148 mm3 and 149 mm3 and 187 mm3 and 130 mm3
Tumor Volume, group mean ([2]; Day 5, n = 7): 168 mm3
% T/C (treatment/control) ([2]; Day 5): 90%
% TGI (tumor growth inhibition) ([2]; Day 5): 46%
Tumor Volume, individual animal ([2]; Day 8, animals No. 1–7): 202 mm3 and 360 mm3 and 167 mm3 and 154 mm3 and 155 mm3 and 464 mm3 and 133 mm3
Tumor Volume, group mean ([2]; Day 8, n = 7): 234 mm3
% T/C (treatment/control) ([2]; Day 8): 96%
% TGI (tumor growth inhibition) ([2]; Day 8): 9%
Tumor Volume, individual animal ([2]; Day 12, animals No. 1–7): 213 mm3 and 711 mm3 and 201 mm3 and 158 mm3 and 164 mm3 and 949 mm3 and 143 mm3
Tumor Volume, group mean ([2]; Day 12, n = 7): 363 mm3
% T/C (treatment/control) ([2]; Day 12): 88%
% TGI (tumor growth inhibition) ([2]; Day 12): 18%
Tumor Volume, individual animal ([2]; Day 15, animals No. 1–7): 216 mm3 and 991 mm3 and 317 mm3 and 165 mm3 and 168 mm3 and 1349 mm3 and 143 mm3
Tumor Volume, group mean ([2]; Day 15, n = 7): 478 mm3
% T/C (treatment/control) ([2]; Day 15): 75%
% TGI (tumor growth inhibition) ([2]; Day 15): 32%
Tumor Volume, individual animal ([2]; Day 19, animals No. 1–7): 207 mm3 and 1716 mm3 and 521 mm3 and 192 mm3 and 174 mm3 and 1858 mm3 and 148 mm3
Tumor Volume, group mean ([2]; Day 19, n = 7): 688 mm3
% T/C (treatment/control) ([2]; Day 19): 84%
% TGI (tumor growth inhibition) ([2]; Day 19): 20%
Tumor Volume, individual animal ([2]; Day 22, animals No. 1–7): 181 mm3 and 2448 mm3 and 891 mm3 and 198 mm3 and 180 mm3 and 2149 mm3 and 149 mm3
Tumor Volume, group mean ([2]; Day 22, n = 7): 885 mm3
% T/C (treatment/control) ([2]; Day 22): 79%
% TGI (tumor growth inhibition) ([2]; Day 22): 24%
Tumor Volume, individual animal ([2]; Day 26, animals No. 1–7): 181 mm3 and 2912 mm3 and 1522 mm3 and 206 mm3 and 188 mm3 and 2607 mm3 and 156 mm3
Tumor Volume, group mean ([2]; Day 26, n = 7): 1110 mm3
% T/C (treatment/control) ([2]; Day 26): 69%
% TGI (tumor growth inhibition) ([2]; Day 26): 34%
Tumor Volume, individual animal ([2]; Day 29, animals No. 1–7): 184 mm3 and 3497 mm3 and 1803 mm3 and 214 mm3 and 196 mm3 and 2946 mm3 and 163 mm3
Tumor Volume, group mean ([2]; Day 29, n = 7): 1286 mm3
% T/C (treatment/control) ([2]; Day 29): 65%
% TGI (tumor growth inhibition) ([2]; Day 29): 38%
Tumor Volume, individual animal ([2]; Day 33, animals No. 1–7): 200 mm3 and 4707 mm3 and 2923 mm3 and 214 mm3 and 196 mm3 and 3520 mm3 and 172 mm3
Tumor Volume, group mean ([2]; Day 33, n = 7): 1705* mm3
% T/C (treatment/control) ([2]; Day 33): 63%
% TGI (tumor growth inhibition) ([2]; Day 33): 39%
Tumor Weight, individual animal ([2]; harvested on day 33, animals No. 1–7): 0.078 g and 3.807 g and 2.646 g and 0.268 g and 0.057 g and 4.319 g and 0.060 g
Tumor Weight, group mean ([2]; harvested on day 33, n = 7): 1.600 g
